# Assay results as given in patent US20250235501A1, “Methods and Compositions for Treating or Preventing Neurological Injury or Neurological Disorders” (University of Connecticut, priority 2024, published 2025).
# Key:
# [1] = tested on: cultured cortical neurons; assay: Mitochondrial function under OGD, Rh123 de-quenching assay; type: cell-based, mouse; conditions: WT neurons; 10 μM peptide overnight; 30 min OGD
# Experimental: FIGS. 6F-6G show the effects of TAT-EE3 on mitochondrial function evaluated using R123 de-quenching assay. Cultured cortical from gM2KO mice, nM2KO mice and WT control littermates were incubated with 10 μM TAT-SC or TAT-EE3 for overnight before OGD exposure. […] External perfusion solution aCSF containing no Ca2+ (No Ca2+) was used as a control. WT neuron without OGD exposure was used as a control (WT control) to illustrate the rapid photo bleaching of Rh123. […] The accumulated numbers of neurons in each group for data analysis were from 3˜5 independent experiments using neurons isolated from 3 mice/group (***, p<0.001; ANOVA, Bonferroni's test; mean±SEM).
# Mice pups at P0 were euthanized based on animal protocol. Whole brain was dissected out immediately and immersed in ice-cold Hank's Balanced Salt Solution (HBSS). […] Isolated cells were counted and plated on coverslips pre-coated with poly-L-lysine (Sigma-Aldrich, P4707) at a density about 500×10^3 cells/cm2 for OGD and H2O2 treatment, and 100×10^3 cells/cm2 for current recording. […]
# Mitochondria function was evaluated using Rhodamine-123 dequenching as previously reported. […]
# Fluorescence intensities at 509 nm with excitation at 488 nm was collected every 15 s for 30 min using CoolSNAP HQ2 (Photometrics) and data were analyzed using NIS-Elements (Nikon).
# [2] = tested on: ERK1/2 and CREB activities (pERK1/2, pCREB); assay: ERK1/2 and CREB activities in cultured neurons (WB); type: cell-based, mouse; conditions: WT neurons pre-incubated with peptide overnight, vs control
# Experimental: FIGS. 7F-7H show the effects of TAT-EE3 on ERK1/2 and CREB activities in cultured neurons isolated from gM2KO and nM2KO mice, and WT littermates. WT neurons were treated with TAT-EE3 or TAT-SC for overnight before the experiments. Neurons were incubated for 1 h before experiments with 1) control (PBS), 2) NMDA (10 μM) to activate synaptic and extrasynaptic NMDARs, and 3) 4-AP 2.5 mM plus biccuculine (Bic) 50 μM (4-AP/Bic) to activate synaptic NMDARs. […] FIGS. 7G and 7H show the quantification of the active CERB and ERK1/2 in each group under three different treatment conditions (***, p<0.001; ANOVA, Bonferroni's test; mean±SEM, n=3).
# Mice pups at P0 were euthanized based on animal protocol. Whole brain was dissected out immediately and immersed in ice-cold Hank's Balanced Salt Solution (HBSS). Meninges were removed thoroughly, and tissue of different brain areas was taken based on purposes. Brain tissue was cut into small pieces and digested with 0.25% trypsin (Thermal Fisher Scientific, 15090-046) in HBSS at 37° C. for 20 min. Digestion solution was quickly removed, and tissue pellets are washed with Neurobasal® Medium (Thermal Fisher Scientific, 21103-049) for 3 times. Cells were resuspended with appropriate amount of Neurobasal® Medium supplemented with 2% B27® supplement (Thermal Fisher Scientific, 17504-044), 3% horse serum (Thermal Fisher Scientific, 16050114), 0.25% L-glutamine (Thermal Fisher Scientific, 25030-081) and 1% penicillin/streptomycin (Thermal Fisher Scientific, 15140-122). Isolated cells were counted and plated on coverslips pre-coated with poly-L-lysine (Sigma-Aldrich, P4707) at a density about 500×10^3 cells/cm2 for OGD and H2O2 treatment, and 100×10^3 cells/cm2 for current recording. Cytosine arabinoside (Sigma-Aldrich, C1768) was added to maintain a concentration at 1 μM to inhibit the proliferation of non-neuronal cells. 24 h after plating, culture medium was changed to Neurobasal® Medium supplemented with 2% B27® supplement, 0.25% L-glutamine and 1% penicillin/streptomycin. The concentration of Cytosine arabinoside (araC) was increased to 2 μM. Medium was changed every 3 days. OGD and H2O2 treatment was conducted at 7th day of culture, and current recording was conducted at 7th, 10th and 14th day of culture.
# NP-40/Triton lysis buffer ([…], 1% Triton™ X-100, 150 mM NaCl, 1 mM EDTA, 50 mM Tris, pH=8.0) containing proteinase inhibitors and phosphatase inhibitors was used to lyse both cultured cells and frozen brain tissue. […] Protein concentration was measured using Pierce™ Rapid Gold BCA Protein Assay Kit.
# 30-50 μg of total protein was loaded and separated proteins were transferred to Nitrocellulose membranes. […] Band intensity was quantified using ImageJ software and normalized with appropriate loading controls.
# [3] = 4-AP 2.5 mM plus bicuculline 50 μM 1 h
substance,measurement,setting,value
"TAT-EE3: membrane permeable disrupting peptide, sequence YGRKKRRQRRREEDTDSSEEMLALAEE (SEQ ID NO: 4)",mitochondrial membrane depolarization induced by OGD (Rh123 fluorescence),[1],markedly inhibited
same,pCREB level after 4-AP/Bic treatment,[2]; [3],increased
same,pERK1/2 level after 4-AP/Bic treatment,[2]; [3],increased
same,pCREB level after NMDA treatment,[2]; NMDA 10 μM 1 h,increased
same,pERK1/2 level after NMDA treatment,[2]; NMDA 10 μM 1 h,increased
